Patent US20090092603A1, “EARLY DIAGNOSIS AND TREATMENT OF DRUG RESISTANCE IN MUC1-POSITIVE CANCER” (priority 2007, published 2009)
Like-named read-outs stand apart in the source and are kept apart here.

System: HERCEPTIN-resistant BTRes1 cells
Details: drug with control Fab, compared to BT474

## O=P1(N(CCCl)CCCl)NCCCO1 (centres unmarked) [cyclophosphamide]
  cytotoxic effect of the drug in cells that acquired HERCEPTIN® resistance: acquired resistance
Listed as Cyclophosphamide
  cytotoxic effect of the drug in cells that acquired HERCEPTIN® resistance: lost
